# From US4968686A, “Acyclic pyrrolo [2,3-d]pyrimidine analogs as antiviral agents” (The Regents of The University of Michigan, priority 1989, dated 1990)
# Columns and labels:
# MCMV = assay: In vivo treatment of mice infected with murine cytomegalovirus (MCMV)
# Description: Compound UMJD 183 was tested in mice infected with murine cytomegalovirus (MCMV). This animal model has been recognized as having capabilities predictive of efficacy in humans.
# Compound UMJD 183 and the drug ganciclovir (DHPG) were administered to groups of 15 mice each at doses and times of administration shown in Table 3. Each compound at all doses was administered intraperitoneally twice daily for five days beginning at either 6, 24 or 48 hours after virus inoculation. Animals were observed daily and the number dying each day recorded.
# KB cells = assay: cells; assay type: cell-based, human; conditions: Homo sapiens; [3H]dThd incorporation, KB cells; read-out: I50 on [3H]dThd incorporation
# Description: KB or HFF cells were planted using a Costar Transplate-96 (Costar, Cambridge, Mass.) in Costar 96-well cluster dishes at a concentration of 10,000 to 12,000 cells per well. Wells were suspended in 200 μl of medium [MDM(H) plus 0.7 gm/liter NaCHO3 supplemented with 10% calf serum] per well. After incubation of 16 to 24 hours at 37° C. in a humidified atmosphere of 4% CO2 in air, […] of medium was removed per well. One-hundred μl of medium with or without compounds in twice their final concentrations was added to each well using a Titertek Multichannel Pipette. Final concentrations of compounds ranged from 0.1 to 320 μM. Fifty μl of medium containing radioactive precursors also was added to each well to give a final concentration to 1 to 3 μCi/ml of labeled precursor. [^3 H]Thd was diluted with unlabeled dThd to give a final concentration of 3 or 6 μM.
# Logarithmic cell growth occurred during this time with continual uptake of labeled precursors. At the end of the incubation period, cells were individually harvested from each well using a Skatron Cell harvester (Skatronh, Inc., Sterling, Va.). Cultures for individual wells were harvested onto filter paper and washed free of unincorporated label with nine sequential washes with 5% trichloroacetic acid, nine washes with water, and nine with ethanol using the Skatron unit. Filters were dried, circles from individual cultures were punched from the filter mat and placed into mini-vials. Liquid scintillation solution was added, and radioactivity determined in a Beckman model LS8100 liquid scintillation spectrometer. All samples were counted for 2.0 minutes each, with three rounds of counting. Counts per minute were determined following the application of statistical methods to eliminate count rates which fell outside distribution limits defined by Chauvenet's rejection criterion.
# All analyses were performed in triplicate. That is, three culture wells were used per time point, radioactive precursor, and drug concentration in all experiments. Results from triplicate assays were converted to percent of control and plotted as log dose-response curves from which 50% inhibitor (I50) concentrations were interpolated. Three concentrations of vidarabine were included on all plates as a positive control.
# Dose-response relationships were used to compare drug effects. These were constructed by linearly regressing the percent inhibition of parameters derived in the preceding sections against log drug concentrations. The 50% inhibitory (I50) concentrations were calculated from the regression lines using the methods described by Goldstein. See Goldstein, A., Biostatistics: An Introductory Text, MacMillan, N.Y., 1964, pp. 156-161. Along with the I50 concentration for visual cytotoxicity, the averaged I50 concentrations are compared to I50 concentrations for inhibition for HCMV or HSV-1 replication. Compounds for which the ratio of cytotoxicity I50 concentrations to antiviral I50 concentrations (in vitro therapeutic index) were greater than 10, were considered for further study.
# HSV-1 HF strain = assay: HSV-1 reduction assay, HF strain; assay type: cell-based, herpes simplex virus type 1 (HF strain); conditions: Human alphaherpesvirus 1; read-out: I50 with HF strain of HSV-1
# Source text: The 148 strain of HSV-1 was used in most experiments and was provided by Dr. T. W. Schafer of Schering corporation. The HF strain of HSV-1 was used in selected experiments and was obtained from Dr. G. H. Cohen, University of Pennsylvania. The Towne strain, plaque-purified isolate Po, of HCMV was a gift of Dr. Mark Stinski, University of Iowa.
# HSV-1 was titered using monolayer cultures of BSC-1 cells. Cells were planted at 3×10^5 cells/well using 6-well cluster dishes. MEM(E) supplemented with 10% fetal bovine serum was employed as medium. After 22-24 hours, cells were 90% confluent and were inoculated in triplicate using at least three ten-fold dilutions with 0.2 ml of the virus suspension to be assayed and incubated in a humidified 4% CO2 […] atmosphere for one hour to permit viral adsorption. Following virus adsorption, the cell sheet was overlayed with 5 ml of MEM(E) with 5% serum plus 0.5% methocel (4000 CPS) and incubated an additional two to three days. Cells were fixed and stained with 0.1% crystal violet in 20% methanol and macroscopic plaques enumerated.
# Plaque reduction experiments were HSV-1 were performed using monolayer cultures of BSC-1 cells. The assay was performed exactly as described above except that the 0.2 ml virus suspension contained approximately 100 p.f.u. of HSV-1. Compounds to be tested were dissolved in the overlay medium at concentrations usually ranging from 0.1 to 100 μM in half-or-one logarithm10 dilutions. Titer reduction assays were performed by planting KB cells in 25 cm^2 plastic tissue culture flasks 10 to 24 hours prior to infection. At the onset of experiments, logarithmically growing replicate monolayer cultures were 60 to 80% confluent and contained 2.5 to 4.5×10^6 cells/flask. Medium was decanted and the cultures were infected with 2 to 10 p.f.u. of HSV-1 per cell. Virus was contained in 1.0 ml of VGM supplemented with 5% fetal bovine serum. After a 1 hour adsorption period at […], the cell sheet was rinsed twice with 2 ml of VGM without serum to remove unadsorbed virus and 5 ml of VGM containing drugs at three to five selected concentrations added in duplicate. Following an 18- to 22-hour incubation at 37° C., infected monolayers were treated with EDTA-trypsin to suspend the cells; aliquots were removed, subjected to three cycles of freezing and thawing, and stored at -76° C. for subsequent virus assay. Virus was titered on BSC-1 cells as described above.
# Dose-response relationships were used to compare drug effects. These were constructed by linearly regressing the percent inhibition of parameters derived in the preceding sections against log drug concentrations. The 50% inhibitory (I50) concentrations were calculated from the regression lines using the methods described by Goldstein. […]
smiles,measurement,setting,value
"Nc1nc(O)c2ncn(COC(CO)CO)c2n1 [Ganciclovir (DHPG), reference compound]",MDD (Mean Day of Death),MCMV; 0.6 mg/kg at 6 h,4.6 days
same,Mortality Number,MCMV; 0.6 mg/kg at 6 h,14/15
same,Mortality Percent,MCMV; 0.6 mg/kg at 6 h,93%
same,MDD (Mean Day of Death),MCMV; 0.6 mg/kg at 24 h,5.4 days
same,Mortality Number,MCMV; 0.6 mg/kg at 24 h,12/15
same,Mortality Percent,MCMV; 0.6 mg/kg at 24 h,80%
same,MDD (Mean Day of Death),MCMV; 0.6 mg/kg at 48 h,5.3 days
same,Mortality Number,MCMV; 0.6 mg/kg at 48 h,14/15
same,Mortality Percent,MCMV; 0.6 mg/kg at 48 h,93%
same,MDD (Mean Day of Death),MCMV; 1.9 mg/kg at 6 h,5.4 days
same,Mortality Number,MCMV; 1.9 mg/kg at 6 h,5/15
same,Mortality Percent,MCMV; 1.9 mg/kg at 6 h,33%
same,MDD (Mean Day of Death),MCMV; 1.9 mg/kg at 24 h,4.9 days
same,Mortality Number,MCMV; 1.9 mg/kg at 24 h,12/15
same,Mortality Percent,MCMV; 1.9 mg/kg at 24 h,80%
same,MDD (Mean Day of Death),MCMV; 1.9 mg/kg at 48 h,4.9 days
same,Mortality Number,MCMV; 1.9 mg/kg at 48 h,11/15
same,Mortality Percent,MCMV; 1.9 mg/kg at 48 h,73%
same,MDD (Mean Day of Death),MCMV; 5.6 mg/kg at 6 h,4.2 days
same,Mortality Number,MCMV; 5.6 mg/kg at 6 h,5/15
same,Mortality Percent,MCMV; 5.6 mg/kg at 6 h,33%
same,MDD (Mean Day of Death),MCMV; 5.6 mg/kg at 24 h,5.3 days
same,Mortality Number,MCMV; 5.6 mg/kg at 24 h,7/15
same,Mortality Percent,MCMV; 5.6 mg/kg at 24 h,47%
same,MDD (Mean Day of Death),MCMV; 5.6 mg/kg at 48 h,5.5 days
same,Mortality Number,MCMV; 5.6 mg/kg at 48 h,10/15
same,Mortality Percent,MCMV; 5.6 mg/kg at 48 h,67%
same,MDD (Mean Day of Death),MCMV; 16.7 mg/kg at 6 h,3.8 days
same,Mortality Number,MCMV; 16.7 mg/kg at 6 h,4/15
same,Mortality Percent,MCMV; 16.7 mg/kg at 6 h,27%
same,MDD (Mean Day of Death),MCMV; 16.7 mg/kg at 24 h,5.3 days
same,Mortality Number,MCMV; 16.7 mg/kg at 24 h,7/15
same,Mortality Percent,MCMV; 16.7 mg/kg at 24 h,47%
same,MDD (Mean Day of Death),MCMV; 16.7 mg/kg at 48 h,5.5 days
same,Mortality Number,MCMV; 16.7 mg/kg at 48 h,8/15
same,Mortality Percent,MCMV; 16.7 mg/kg at 48 h,53%
"Nc1ncnc2c1c(Cl)cn2COC(CO)CO [UMJD 186, 4-amino-5-chloro-7-[(1,3-dihydroxy-2-propoxy)-methyl]pyrrolo[2,3-d]pyrimidine]",IC50,KB cells,28 µM
"Nc1ncnc2c1c(I)cn2COCCO [UMJD 104, 4-Amino-5-iodo-7-(2-hydroxyethoxymethyl)pyrrolo[2,3-d]-pyrimidine]",IC50,HSV-1 HF strain,54 µM
same,IC50,KB cells,1.2 µM
"Nc1ncnc2c1c(Cl)cn2COCCO [UMJD 100, 4-Amino-5-chloro-7-(2-hydroxyethoxymethyl)pyrrolo[2,3-d]-pyrimidine]",IC50,HSV-1 HF strain,> 100 µM
same,IC50,KB cells,0.82 µM
"Nc1ncnc2c1c(Br)cn2COC(CO)CO [UMJD 183, 4-amino-5-bromo-7-[(1,3-dihydroxy-2-propoxy)methyl]-pyrrolo[2,3-d]pyrimidine]",MDD (Mean Day of Death),MCMV; 1.9 mg/kg at 6 h,6.2 days
same,Mortality Number,MCMV; 1.9 mg/kg at 6 h,5/15
same,Mortality Percent,MCMV; 1.9 mg/kg at 6 h,33%
same,MDD (Mean Day of Death),MCMV; 1.9 mg/kg at 24 h,4.8 days
same,Mortality Number,MCMV; 1.9 mg/kg at 24 h,9/15
same,Mortality Percent,MCMV; 1.9 mg/kg at 24 h,60%
same,MDD (Mean Day of Death),MCMV; 1.9 mg/kg at 48 h,4.8 days
same,Mortality Number,MCMV; 1.9 mg/kg at 48 h,10/15
same,Mortality Percent,MCMV; 1.9 mg/kg at 48 h,67%
same,number of animals surviving virus infection (in words),MCMV; 5.6 mg/kg,highly significant increases in the number of animals surviving
same,MDD (Mean Day of Death),MCMV; 5.6 mg/kg at 6 h,8.0 days
same,Mortality Number,MCMV; 5.6 mg/kg at 6 h,1/15
same,Mortality Percent,MCMV; 5.6 mg/kg at 6 h,7%
same,MDD (Mean Day of Death),MCMV; 5.6 mg/kg at 24 h,6.3 days
same,Mortality Number,MCMV; 5.6 mg/kg at 24 h,3/15
same,Mortality Percent,MCMV; 5.6 mg/kg at 24 h,20%
same,MDD (Mean Day of Death),MCMV; 5.6 mg/kg at 48 h,5.5 days
same,Mortality Number,MCMV; 5.6 mg/kg at 48 h,6/15
same,Mortality Percent,MCMV; 5.6 mg/kg at 48 h,40%
same,MDD (Mean Day of Death),MCMV; 16.7 mg/kg at 6 h,8.7 days
same,Mortality Number,MCMV; 16.7 mg/kg at 6 h,9/15
same,Mortality Percent,MCMV; 16.7 mg/kg at 6 h,60%
same,MDD (Mean Day of Death),MCMV; 16.7 mg/kg at 24 h,7.1 days
same,Mortality Number,MCMV; 16.7 mg/kg at 24 h,12/15
same,Mortality Percent,MCMV; 16.7 mg/kg at 24 h,80%
same,MDD (Mean Day of Death),MCMV; 16.7 mg/kg at 48 h,8.4 days
same,Mortality Number,MCMV; 16.7 mg/kg at 48 h,13/15
same,Mortality Percent,MCMV; 16.7 mg/kg at 48 h,87%
same,MDD (Mean Day of Death),MCMV; 50 mg/kg at 6 h,10.8 days
same,Mortality Percent,MCMV; 50 mg/kg at 6 h,60%
same,Mortality Number,"MCMV; 50 mg/kg at 6 h, i.p. twice daily 5 days",9/15
same,MDD (Mean Day of Death),MCMV; 50 mg/kg at 24 h,8.8 days
same,Mortality Number,MCMV; 50 mg/kg at 24 h,14/15
same,Mortality Percent,MCMV; 50 mg/kg at 24 h,93%
same,MDD (Mean Day of Death),MCMV; 50 mg/kg at 48 h,7.5 days
same,Mortality Number,MCMV; 50 mg/kg at 48 h,13/15
same,Mortality Percent,MCMV; 50 mg/kg at 48 h,87%
same,life span of MCMV-infected mice (in words),MCMV; all doses,prolonged life span (increased the mean day of death) at all doses
"Nc1ncnc2c1c(Br)cn2COCCO [UMJD 102, 4-Amino-5-bromo-7-(2-hydroxyethoxymethyl)pyrrolo[2,3-d]-pyrimidine]",IC50,HSV-1 HF strain,28 µM
same,IC50,KB cells,0.13 µM
"Nc1nc2c(ncn2COCCO)c(=O)[nH]1 [Acyclovir, reference compound]",IC50,HSV-1 HF strain,36 µM
